According to patent US20230330093A1, “APPLICATION OF NITROGEN-CONTAINING SATURATED HETEROCYCLIC COMPOUND” (SHANGHAI PHARMACEUTICALS HOLDING CO., LTD., priority 2020, published 2023):
“And” between values parts separate entries of the source, which are not always exact repeats. Identical values can stand only once.

Legend:
[1] = test system: rhesus monkeys with spontaneous chronic kidney disease; experiment: Effect on plasma creatinine Cr-P, 8-week administration; assay type: in vivo, Macaca mulatta (Rhesus Macaque)
Experimental: In the trial, animals were brought in three stages. […] Glomerular filtration rate […]: creatinine (Cr-P), urea nitrogen (BUN) and cystatin (CysC) were detected, and the eGFR value was obtained by calculation. It was performed once before the administration and once every two weeks after the administration. […] ELISA kit was used for NT-proBNP test. [table]

[2] = test system: rhesus monkeys with spontaneous chronic kidney disease (CKD); experiment: Effect on UACR (proteinuria), 8-week oral administration; assay type: in vivo, Macaca mulatta (Rhesus Macaque); details: for MALB / UACR: per animal + Mean ± SD; for UACR change rate: 8 weeks vs baseline, negative = decrease; for UACR Benefit assessment: per animal
Experimental: CKD-EPI rating […]-G3b, glomerular filtration rate eGFR: 30 59 ml/min/1.73 m^2; or moderate to severe increase in proteinuria (A2-A3): urine albumin/creatinine ratio (UACR)>15 mg/g-350 mg/g (4-6 hour urine collection), vs. age-matched control group 3±2 mg/g. In the trial, animals were brought in three stages. […] ELISA kit was used for NT-proBNP test. [table]

[3] = 1 mg/kg oral once a day, 4 weeks
[4] = 1 mg/kg oral once a day, 4 weeks, mean
[5] = 1 mg/kg oral once a day, 8 weeks
[6] = 1 mg/kg oral once a day, 8 weeks, mean
[7] = 1 mg/kg oral once a day, Baseline
[8] = 1 mg/kg oral once a day, Baseline, mean
[9] = 2 mg/kg oral once a day, 4 weeks
[10] = 2 mg/kg oral once a day, 4 weeks, mean
[11] = 2 mg/kg oral once a day, 8 weeks
[12] = 2 mg/kg oral once a day, 8 weeks, mean
[13] = 2 mg/kg oral once a day, Baseline
[14] = 2 mg/kg oral once a day, Baseline, mean

COC(=O)NCCCn1nc([C@@H](C)N(C(=O)[C@H]2CNCCO2)C2CC2)c2ccc(C)nc21.O=C(O)C[C@H](O)C(=O)O [malate of compound of Formula I]
Cr-P ([1]; 1 mg/kg (n = 5), 2 weeks): 1.21 mg/dL and 1.07 mg/dL and 1.12 mg/dL and 1.13 mg/dL and 1.24 mg/dL
Cr-P ([1]; 1 mg/kg (n = 5), 2 weeks, mean): 1.15 ± 0.07 mg/dL
Cr-P ([1]; 1 mg/kg (n = 5), 4 weeks): 1.11 mg/dL and 1.01 mg/dL and 1.12 mg/dL and 1.06 mg/dL and 1.26 mg/dL
Cr-P ([1]; 1 mg/kg (n = 5), 4 weeks, mean): 1.11 ± 0.09 mg/dL
Cr-P ([1]; 1 mg/kg (n = 5), 6 weeks): 1.16 mg/dL and 1.07 mg/dL and 1.22 mg/dL
Cr-P ([1]; 1 mg/kg (n = 5), 6 weeks, mean): 1.12 ± 0.07 mg/dL
Cr-P ([1]; 1 mg/kg (n = 5), 8 weeks): 1.14 mg/dL and 1.01 mg/dL and 1.17 mg/dL and 1.18 mg/dL and 1.22 mg/dL
Cr-P ([1]; 1 mg/kg (n = 5), 8 weeks, mean): 1.14 ± 0.08 mg/dL
Cr-P ([1]; 1 mg/kg (n = 5), Baseline, single animals and Mean ± SD): 1.25 mg/dL and 1.03 mg/dL and 1.09 mg/dL and 1.05 mg/dL and 1.21 mg/dL
Cr-P ([1]; 1 mg/kg (n = 5), Baseline, single animals and Mean ± SD, mean): 1.13 ± 0.10 mg/dL
Cr-P ([1]; 2 mg/kg (n = 5), 2 weeks): 1.1 mg/dL and 1.19 mg/dL and 1.52 mg/dL and 1.54 mg/dL and 1.11 mg/dL
Cr-P ([1]; 2 mg/kg (n = 5), 2 weeks, mean): 1.29 ± 0.22 mg/dL
Cr-P ([1]; 2 mg/kg (n = 5), 4 weeks): 1.15 mg/dL and 1.44 mg/dL and 1.47 mg/dL and 1.26 mg/dL and 1.09 mg/dL
Cr-P ([1]; 2 mg/kg (n = 5), 4 weeks, mean): 1.28 ± 0.17 mg/dL
Cr-P ([1]; 2 mg/kg (n = 5), 6 weeks): 1.17 mg/dL and 1.27 mg/dL and 1.43 mg/dL and 1.34 mg/dL and 1.04 mg/dL
Cr-P ([1]; 2 mg/kg (n = 5), 6 weeks, mean): 1.25 ± 0.15 mg/dL
Cr-P ([1]; 2 mg/kg (n = 5), 8 weeks): 1.17 mg/dL and 1.29 mg/dL and 1.4 mg/dL and 1.3 mg/dL and 1.11 mg/dL
Cr-P ([1]; 2 mg/kg (n = 5), 8 weeks, mean): 1.25 ± 0.11 mg/dL
Cr-P ([1]; 2 mg/kg (n = 5), Baseline, single animals and Mean ± SD): 1.15 mg/dL and 1.14 mg/dL and 1.36 mg/dL and 1.42 mg/dL and 1.06 mg/dL
Cr-P ([1]; 2 mg/kg (n = 5), Baseline, single animals and Mean ± SD, mean): 1.23 ± 0.16 mg/dL
Cr-P ([1]; 5 mg/kg (n = 6), 2 weeks): 0.92 mg/dL and 1.14 mg/dL and 0.88 mg/dL and 1.12 mg/dL and 1.40 mg/dL and 0.96 mg/dL
Cr-P ([1]; 5 mg/kg (n = 6), 2 weeks, mean): 1.07 ± 0.19 mg/dL
Cr-P ([1]; 5 mg/kg (n = 6), 4 weeks): 0.85 mg/dL and 1.26 mg/dL and 0.89 mg/dL and 1.15 mg/dL and 1.13 mg/dL and 1.33 mg/dL
Cr-P ([1]; 5 mg/kg (n = 6), 4 weeks, mean): 1.10 ± 0.19 mg/dL
Cr-P ([1]; 5 mg/kg (n = 6), 6 weeks): 0.87 mg/dL and 1.42 mg/dL and 1.02 mg/dL and 1.06 mg/dL and 1.12 mg/dL and 1.32 mg/dL
Cr-P ([1]; 5 mg/kg (n = 6), 6 weeks, mean): 1.14 ± 0.20 mg/dL
Cr-P ([1]; 5 mg/kg (n = 6), 8 weeks): 0.85 mg/dL and 1.22 mg/dL and 0.95 mg/dL and 1.04 mg/dL and 1.11 mg/dL and 1.18 mg/dL
Cr-P ([1]; 5 mg/kg (n = 6), 8 weeks, mean): 1.06 ± 0.14 mg/dL
Cr-P ([1]; 5 mg/kg (n = 6), Baseline, single animals and Mean ± SD): 0.90 mg/dL and 1.53 mg/dL and 1.10 mg/dL and 0.99 mg/dL and 1.43 mg/dL and 1.79 mg/dL
Cr-P ([1]; 5 mg/kg (n = 6), Baseline, single animals and Mean ± SD, mean): 1.29 ± 0.35 mg/dL
MALB [2, 3]: 4.6 mg/L and 34.1 mg/L and 1.4 mg/L and 5.1 mg/L and 1.3 mg/L
UACR [2, 3]: 15.0 mg/g and 28.1 mg/g and 7.2 mg/g and 4.7 mg/g and 8.1 mg/g
MALB [2, 4]: 9.3 ± 14.0 mg/L
UACR [2, 4]: 12.6 mg/g
UACR change rate ([2]; 1 mg/kg oral once a day, per animal + Mean ± SD (2/5 animals in statistics)): −39.14% and 8.44%
UACR change rate ([2]; 1 mg/kg oral once a day, per animal + Mean ± SD (2/5 animals in statistics), mean): −15.35%
UACR Benefit assessment [2, 5]: Benefit and No
MALB [2, 5]: 5.2 mg/L and 38.4 mg/L and 0.8 mg/L and 7.6 mg/L and 1.1 mg/L
UACR [2, 5]: 20.0 mg/g and 32.5 mg/g and 3.1 mg/g and 2.6 mg/g and 6.1 mg/g
MALB [2, 6]: 10.6 ± 15.8 mg/L
UACR [2, 6]: 12.9 ± 13.0 mg/g
UACR Benefit assessment ([2]; 1 mg/kg oral once a day, 8 weeks, listed as malate of compound of formula I): The benefit was not obvious in one case
MALB [2, 7]: 9.5 mg/L and 26.8 mg/L and 0.6 mg/L and 0.9 mg/L (2×)
UACR [2, 7]: 32.8 mg/g and 30.0 mg/g and 2.9 mg/g and 1.6 mg/g and 4.1 mg/g
MALB [2, 8]: 7.7 ± 11.3 mg/L
UACR [2, 8]: 14.3 mg/g
UACR of W8 decreased by, compared with the baseline ([2]; 1 mg/kg qd, one animal): 39%
MALB [2, 9]: 1.0 mg/L and 12.5 mg/L and 5.3 mg/L and 103.7 mg/L and 2.4 mg/L
UACR [2, 9]: 3.1 mg/g and 7.9 mg/g and 12.7 mg/g and 92.9 mg/g and 3.6 mg/g
MALB [2, 10]: 25.0 ± 44.2 mg/L
UACR [2, 10]: 24.0 mg/g
UACR change rate ([2]; 2 mg/kg oral once a day, per animal + Mean ± SD (3/5 animals in statistics, p < 0.01 vs placebo)): −85.13% and −51.06% and −61.81%
UACR change rate ([2]; 2 mg/kg oral once a day, per animal + Mean ± SD (3/5 animals in statistics, p < 0.01 vs placebo), mean): −66.00%
UACR Benefit assessment [2, 11]: Benefit
MALB [2, 11]: 3.0 mg/L and 0.4 mg/L and 0.6 mg/L and 69.5 mg/L and 3.6 mg/L
UACR [2, 11]: 5.6 mg/g and 1.2 mg/g and 2.3 mg/g and 59.8 mg/g and 11.2 mg/g
MALB [2, 12]: 15.4 ± 30.3 mg/L
UACR [2, 12]: 16.0 ± 24.8 mg/g
UACR Benefit assessment ([2]; 2 mg/kg oral once a day, 8 weeks, listed as malate of compound of formula I): all showed benefits
MALB [2, 13]: 1.2 mg/L and 0.6 mg/L and 5.3 mg/L and 145.4 mg/L and 6.8 mg/L
UACR [2, 13]: 3.5 mg/g and 2.5 mg/g and 15.3 mg/g and 122.1 mg/g and 29.3 mg/g
MALB [2, 14]: 31.9 ± 63.5 mg/L
UACR [2, 14]: 34.5 mg/g
W8 UACR decreased by on average, compared with the baseline ([2]; 2 mg/kg qd, 3/5 animals with moderate to severe proteinuria, p<0.01 vs placebo): 66.00±17.42%
UACR of W8 decreased by, compared with the baseline ([2]; 2 mg/kg qd, three animals): 50%-80%
UACR change rate ([2]; 5 mg/kg oral once a day, per animal + Mean ± SD (4/6 animals in statistics, p < 0.05 vs placebo)): 16.75% and −64.10% and −68.62% and −72.14%
UACR change rate ([2]; 5 mg/kg oral once a day, per animal + Mean ± SD (4/6 animals in statistics, p < 0.05 vs placebo), mean): −46.87 ± 36.93 %
